These are literature values, as cited in patent publication US5780494A, “Piperidinyl-terminated alkylamino ethynl alanine amino diol compounds for treatment of hypertension” (G. D. Searle & Co., priority 1997, dated 1998).

Square brackets hold non-standard residues; d marks the D form. Peptide text beside a SMILES is read from it. * marks the point of attachment. Sta = CC(C)C[C@H](N)[C@@H](O)CC(=O)O; Isovaleryl = CC(C)CC(=O)*

Data set [1] deals with cathepsin D.
For data set [2], the system named is hog renin. Conditions: after the injection of hog renin into nephrectomized rats.
The test system of data set [3] is pepsin.
The test system of data set [4] is renin.

For `CC(C)CC(=O)N[C@H](C(=O)N[C@H](C(=O)N[C@@H](CC(C)C)[C@@H](O)CC(=O)N[C@@H](C)C(=O)N[C@@H](CC(C)C)[C@@H](O)CC(=O)O)C(C)C)C(C)C` [pepstatin] (Isovaleryl-VV[Sta]A[Sta]-OH), the “inhibition of cathepsin D” value in data set [1] is “inhibitor”. The blood pressure reduction result in data set [2] is recorded as “found to reduce blood pressure”. Moreover, the inhibition of pepsin result in data set [3] is given as “inhibitor”. Besides, in data set [4], the inhibition of renin entry is “inhibitor”.
